For one series, the system named is adenosine receptors. As to conditions: in words; development for ischemic stroke halted; cited from earlier work.
For series [1], the target named is T1, A1 adenosine receptor (Rattus norvegicus, UniProt P25099).
T1 sequence (P25099 1-326): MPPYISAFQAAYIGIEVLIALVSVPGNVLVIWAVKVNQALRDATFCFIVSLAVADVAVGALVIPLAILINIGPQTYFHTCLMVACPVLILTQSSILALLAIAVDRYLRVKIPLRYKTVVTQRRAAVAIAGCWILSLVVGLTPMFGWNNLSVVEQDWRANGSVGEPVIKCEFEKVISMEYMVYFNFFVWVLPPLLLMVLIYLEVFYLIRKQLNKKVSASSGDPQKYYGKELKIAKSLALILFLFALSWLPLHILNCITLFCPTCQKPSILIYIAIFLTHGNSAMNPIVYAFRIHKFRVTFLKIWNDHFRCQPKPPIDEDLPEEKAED
As to conditions: cited from earlier work.

The target of series [2] is T2, A2A adenosine receptor (Rattus norvegicus, UniProt P30543). The conditions noted are these: Table 1, literature values; cited from earlier work.
The conditions of series [3]: in words; cited from earlier work.
The conditions of series [4]: in words; cited from earlier work. The source holds these as a separate data set.
The next series deals with A2A-receptors. As to conditions: read-out: KiA2A; cited from earlier work.
For series [5], the target named is T2, A2A adenosine receptor. Nature of the series: Receptor binding assay with [3H]MSX-2 on A2A-adenosine receptors. Set-up: tissue Pel Freez Company (Rogers, Ark., USA); host or cells: rat brain striatum membranes. As to conditions: for Ki: Table 2, [3H]MSX-2, read-out: A2A K1. From the text:
(§1) The data of the biological tests that are cited below results from radioligand-binding assays on A1, A2A, A2B and A3 adenosine receptors (ARs).
(§2) The following selective radioligands are used in the biological tests: • [^3H]CCPA (for A1 ARs) [Klotz et al., Naunyn-Schmiedeberg's Arch. Pharmacol., 340, 679 (1989)] • [^3]MSX-2 (for A2A ARs) [Muiller et al., Eur. J. Pharm. Sci., 10, 259 (2000)] • [^3H]ZM241385 (for A2B ARs_[X.-D. Ji, K. A. Jacobson, Drug Des. Discov., 16, 217 (1999)] • [^3H]PSB-11 (new antagonistic radioligand for human A3 ARs) [M. Dieckmann, M. Thorand, V. Ozola, C. E. Muiller, in Vorbereitung [Preparation] (2001)]. • [^125I]AB-MECA (for rat-A3 ARs) [Olah et al., Mol. Pharmacol., 45, 978 (1994)]. Description of the Assays That are Used for Testing Substances Production of Tissue Preparations Made from Rat Brains
(§3) The cell decomposing of the cerebral cortex is carried out with a glass-Teflon homogenizer (stages 5-6, 10 seconds) in 0.32 M saccharose solution. The membranes are purified over various centrifuging steps. With centrifuging at 600 g, 4° C., for 10 minutes, a large amount of cell debris is separated via the P1 fraction, and the supernatant (P2 fraction) is further worked up: in the subsequent three centrifuging steps (35,000 g; 4° C.; 60 minutes), a pellet is produced that is resuspended in 50 mmol of TRIS buffer, pH 7.4 with the Ultraturrax (stages 3-4, 3 seconds); the respective supernatant is discarded. The striata are added to cold TRIS buffer, homogenized with the Ultraturrax in stages 3 to 4-(3 seconds) and then centrifuged at 35,000 g, 4° C., for 20 minutes. The supernatant is discarded, and the pellet is resuspended in 50 mmol of TRIS buffer (50 mmol, pH 7.4). The washing process is repeated twice more. The membrane preparations are stored at −80° C. and are held for several months. The cerebral cortex membrane preparation is used for A1-radioligand binding studies, and the striatum is used for A2A-radiologiand binding studies.
(§4) The test substances are dissolved in DMSO to 10 mmol. The final concentration of DMSO in the assay is 2.5% for A1- and A2A-adenosine receptor assays and 1-2% for A2B- and A3-assays. Dilution series of the test substances are produced from the stock solution. Five to eight different test concentrations, which comprise 3 orders of magnitude (e.g., 1 nm to 1000 nm), are used.
Receptor Binding Assay with [^3H]MSX-2 on A2A-Adenosine Receptors:
• 25 μl of DMSO, NECA (800 μmol) or test substance dilutions • 775 μl of TRIS buffer (for production, see above) • 100 μl of [^3H]MSX-2 (final concentration 1 nmol; KD value 8 nmol) • 100 μl of rat-striatum-membrane preparation or preparation of CHO cells, which express the human A2A receptor, incubated with 0.12 IE adenosine-deaminase (protein concentration: 25-75 μg/ml) • 1000 μl of final volume
The assay is performed according to the instructions of the receptor-binding assay with [^3H]CCPA with consideration of the amounts and solutions that are listed above. The incubation time is 30 minutes at 23° C. in an oscillating water bath. The glass fiber filter is introduced 30 minutes before use in 0.5% PEI solution.
(§5) The mean value is calculated from three independent experiments. IC50 and K, values are obtained from the Cheng-Prusoff equation, the concentration and the KD value of the radioligand. For calculation, the program GraphPadPrism™, Version 3.0 (GraphPad, San Diego, Calif., USA), was used.

Series [6] has as its target T1, A1 adenosine receptor. Nature of the series: Radioligand binding with [3H]CCPA on A1-adenosine receptors, rat brain cortex membranes. Set-up: tissue Pel Freez Company (Rogers, Ark., USA); host or cells: rat brain cerebral cortex membranes. The conditions noted are these: Table 2; [3H]CCPA; read-out: A1 K1.
From the text: as §1, §2
For the preparations, deep-frozen rat brains of the Pel Freez Company (Rogers, Ark., USA) are used. The rat brains are thawed in 0.32 M saccharose solution, the cortex is cut off, and the striata are prepared outside.
as §3, §4
Radioligand Binding Studies with [^3H]CCPA on A1-Adenosine Receptors:
The mixture is incubated for 90 minutes in an oscillating water bath at 23° C. Then, it is filtered off with a Brandel cell-harvester and washed twice more with ice-cooled TRIS buffer, 50 mmol, pH 7.4 (3 ml). The filter plates are conveyed in scintillation vials, doused with 2.5 ml of Ultima Gold Scintillation cocktail and incubated for at least 6 hours before they are measured in a scintillation counter.
as §5

Where [7] appears, read: Table 1, literature values, read-out: A1 K1.

The text below walks through data of patent US20050107611A1, “Pyrazolyl-substituted triazoloquinoxalines” (priority 2001, published 2005).

Like-named read-outs stand apart in the source and are kept apart here.

T2 sequence (P30543 whole entry): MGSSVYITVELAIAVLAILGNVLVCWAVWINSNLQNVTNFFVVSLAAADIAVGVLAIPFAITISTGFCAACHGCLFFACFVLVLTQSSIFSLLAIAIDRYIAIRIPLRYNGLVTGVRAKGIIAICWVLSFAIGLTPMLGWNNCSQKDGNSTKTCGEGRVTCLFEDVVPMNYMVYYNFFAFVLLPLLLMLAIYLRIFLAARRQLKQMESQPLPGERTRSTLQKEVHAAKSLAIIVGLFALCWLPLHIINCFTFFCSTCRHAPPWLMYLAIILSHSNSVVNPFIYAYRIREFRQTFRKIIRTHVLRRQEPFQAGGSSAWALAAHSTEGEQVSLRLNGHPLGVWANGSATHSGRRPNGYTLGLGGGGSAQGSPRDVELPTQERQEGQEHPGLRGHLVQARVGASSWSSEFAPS

`Nc1nc2ccc(Cl)cc2c2nc(-c3ccco3)nn12` [CGS-15943, 9-Chloro-2-(2-furanyl)-[1,2,4]triazolo[1,5-c]quinazoline-5-amine]: the selectivity result in the series with adenosine receptors is given as “inadequate selectivity”.

In the case of `Clc1cc(-c2nc3ccccc3n3c(-c4ccco4)nnc23)[nH]n1` [R = 2-Furyl], the Ki on A1 adenosine receptor [1] (setting [7]) is 410 ± 160 nM. Moreover, the “A2A % Inhibition @ 25 μmol” value on A2A adenosine receptor [2] is reported as “(31% ± 3%)”.

On to `Clc1cc(-c2nc3ccccc3n3c(-c4cccs4)nnc23)[nH]n1` [R = 2-Thienyl], for which the Ki at A1 adenosine receptor [1] (setting [7]) is 710 ± 60 nM. Further, at A2A adenosine receptor [2], the “A2A % Inhibition @ 25 μmol” value is given as “(22% ± 13%)”.

`Clc1cc(-c2nc3ccccc3n3c(Cc4cccs4)nnc23)[nH]n1` [R = 2-Thienylmethyl]: the Ki at A1 adenosine receptor [1] (read-out: KiA1) was 200 nM. Further, the “A2A % Inhibition @ 25 μmol” value on A2A adenosine receptor [2] was “(21% ± 10%)”.

Turning to `Clc1cc(-c2nc3ccccc3n3c(-c4ccccc4)nnc23)[nH]n1` [R = —C6H5], on A1 adenosine receptor [1] (setting [7]), the Ki is 1620 ± 680 nM. The “A2A % Inhibition @ 25 μmol” value on A2A adenosine receptor [2] is on record as “(0%)”.

In the case of `Clc1cc(-c2nc3ccccc3n3c(Cc4ccccc4)nnc23)[nH]n1` [R =—CH2C6H5], the Ki on A1 adenosine receptor [1] (setting [7]) was 310 ± 90 nM. Further, the “A2A % Inhibition @ 25 μmol” value at A2A adenosine receptor [2] is on record as “(6.1% ± 1.5%)”.

Take `Nc1nc2c(cnn2CCc2ccccc2)c2nc(-c3ccco3)nn12` [Sch-52861, 2-(2-Furanyl)-7-(2-phenylethyl)-7H-pyrazolo[4,3-e][1,2,4]triazolo[1,5-c]pyrimidine-5-amine]: the solubility entry in series [3] is listed as “inadequate solubility”. Besides, in series [4], the oral bioavailability entry is “poor oral bioavailability”. At A2A-receptors, the Ki is 2.3 nM.

On to `Clc1cc(-c2nc3ccccc3n3c(-c4ccsc4)nnc23)n[nH]1` [Y = C-(3-Thienyl), R5 = H, R6 = Cl], for which the Ki on A2A adenosine receptor [5] was 4100 nM; on A1 adenosine receptor [6], 330 nM.

On to `Clc1cc(-c2nc3ccccc3n3c(COCc4ccccc4)nnc23)n[nH]1` [Y = C—CH2—O—CH2-Ph, R5 = H, R6 = Cl], for which, on A2A adenosine receptor [5] (10 μmol), the “A2A % inhib. @ 10 μmol” value is reported as “(3%)”. Moreover, the Ki on A2A adenosine receptor [5] is greater than 10000 nM; at A1 adenosine receptor [6], 620 nM.

For `CC(Oc1ccccc1)c1nnc2c(-c3cc(Cl)[nH]n3)nc3ccccc3n12` (stereo not drawn) [Y = C—CH—(CH3)—O-Ph, R5 = H, R6 = Cl], the results for the Ki on A2A adenosine receptor [5] and at A1 adenosine receptor [6] were 1180 nM and 100 nM, respectively.
